The source of these data is article PMC8596843, “Platinum Cyclooctadiene Complexes with Activity against Gram‐positive Bacteria” (Chemmedchem, 2021).

Marks after values point to notes of the source that are not given here. Bounds are passed on as bounds.

For one data set, the system named is S. aureus NRS 17 GISA. Kind of data set: MIC in the presence of human serum (serum reversal). It is filed as cell-based, Staphylococcus aureus. Conditions: 50% serum. In outline:
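MIC determination repeated in the presence of 10% or 50% human serum. Bacteria grown overnight at 37 °C, diluted from mid-log cultures, and tested at a final concentration range of 0.8–100 µM.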

Data set [1] has as its system Enterococcus faecium Clinical Isolate, VRE (VanA). Kind of data set: Antibacterial MIC assay, Gram-positive panel. The note with it: n=4. It is filed as cell-based. In outline: (§1)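 MIC is defined here as the lowest concentration inhibiting growth by ≥80% relative to untreated bacteria. The assay used OD600 in CAMHB after an 18 h, 37 °C incubation at 5 × 10^5 CFU/mL. Compound was dosed in 2-fold steps with DMSO capped at 0.5–1% final.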

In data set [2] the test system is Enterococcus faecalis Clinical Isolate, VRE (VanB). Kind of data set: Antibacterial MIC assay, Gram-positive panel. It is filed as cell-based. The note with it: n=4. Put shortly:
as §1

Data set [3] concerns Bacillus subtilis ATCC 6051, type strain. The experiment in a line: Antibacterial MIC assay, Gram-positive panel. Conditions: n=2. In kind it is cell-based. Put shortly: as §1
Data set [4] deals with Staphylococcus epidermidis ATCC 14990, type strain. The experiment in a line: Antibacterial MIC assay, Gram-positive panel. It is filed as cell-based. The note with it: n=4. In outline:
as §1

Data set [5] relates to Enterococcus faecalis ATCC 29212, control strain. Kind of data set: Antibacterial MIC assay, Gram-positive panel. It is filed as cell-based. Conditions: n=4. Put shortly:
as §1

In data set [6] the test system is Staphylococcus epidermidis NRS 60, VISE. The experiment in a line: Antibacterial MIC assay, Gram-positive panel. In kind it is cell-based. Conditions: n=4. In outline: as §1
The test system of data set [7] is Enterococcus faecium ATCC 35667, type strain. Kind of data set: Antibacterial MIC assay, Gram-positive panel. Conditions: n=4. In kind it is cell-based. Put shortly:
as §1

Data set [8] concerns Enterococcus faecium ATCC 51559, MDR, VRE (VanA). The experiment in a line: Antibacterial MIC assay, Gram-positive panel. It is filed as cell-based. Conditions: n=2. Put shortly:
as §1

Data set [9] concerns Acinetobacter baumannii ATCC 19606. The experiment in a line: Antibacterial MIC assay. In kind it is cell-based. The note with it: CO‐ADD screening. On the procedure:
(§2) All compounds submitted to CO‐ADD are initially screened against five bacterial strains (Staphylococcus aureus (MRSA), E. coli, Klebsiella pneumoniae, Pseudomonas aeruginosa, Acinetobacter baumannii) and two fungal strains (Candida albicans, Cryptococcus neoformans) at a single concentration (32 μg/mL or 20 μM) performed as a high‐throughput primary screening.[[11], [17a]] Any compounds that show significant growth inhibition against any of the tested strains at this step are then evaluated in a dose‐response assay against these same strains. […]
(§3) Smiles: C1C=CCCC(=CC1)C1=CCCC=CCC1.C[Pt]C.C[Pt]C […]
(§4) ATCC strains were sourced from the American Type Culture Collection and NRS strains from NARSA (Network on Antimicrobial Resistance in Staphylococcus aureus) via BEI Resources (www.beiresources.org), with clinical MSSA and MRSA isolates from Prof Graeme Nimmo, Queensland […]
(§5) Health Central Pathology. […]
(§6) Antibacterial minimum inhibitory concentration (MIC) assay
(§7) Compound Assay Plate Preparation: Compounds were dissolved in DMSO at 10mM (CO-ADD screening) or 4 mM (follow up screening) and were plated in a 2-fold dose response from 20 to 0.156 µM or 200 to 0.006 µM respectively, with a maximum of 0.5% or 1% DMSO, final in the assay […]
(§8) plated in a 2-fold dose response from 200 to 0.006 µM, with a maximum of 1 % DMSO, final in the assay concentration. (in-house screening)
(§9) For all the bacterial assays, each strain was cultured in Cation-adjusted Mueller Hinton broth (CAMHB; Bacto Laboratories 212322) at 37 °C overnight. A sample of each culture was then diluted 40-fold in fresh CAMHB and incubated at 37 °C for 1.5–3 h. The resultant mid-log phase cultures were diluted with CAMHB (CFU mL−1 measured by OD600), then added to each well of the compound-containing plates (384-well non-binding surface (NBS) plates; Corning CLS3640), giving a cell density of 5 × 10^5 CFU mL−1 and a total volume of 50 μL. Plates were covered and incubated at 37 °C for 18 h without shaking. Inhibition of bacterial growth was determined measuring absorbance at 600 nm (OD600), using media only as negative control and bacteria without inhibitors as positive control. MIC values were determined as the lowest concentration at which the growth was inhibited at ≥80%. Colistin sulfate (Sigma C4461) and vancomycin HCl (Sigma 861987) were used as internal controls on each plate for Gram-negative and Gram-positive bacteria, respectively. […]

Data set [10] deals with Pseudomonas aeruginosa ATCC 27853. The experiment in a line: Antibacterial MIC assay. It is filed as cell-based. Conditions: CO‐ADD screening. As to the method:
as §2, §3, §4, §5, §6, §7, §8, §9

Data set [11] relates to Escherichia coli ATCC 25922. Kind of data set: Antibacterial MIC assay. The note with it: CO‐ADD screening. In kind it is cell-based. On the procedure:
as §2, §3, §4, §5, §6, §7, §8, §9

For data set [12], the system named is Cryptococcus neoformans H99 ATCC 208821. The experiment in a line: Antifungal MIC (CO-ADD screening). It is filed as cell-based. As to the method: (§10) InChIKey: PHIWIZAHOBWKFJ-HPCBIOCFSA-N
(§11) Health Central Pathology. Candida albicans (ATCC 90028, NCCLS 11), Cryptococcus neoformans
as §6
(§12) concentration. (in-house screening)
(§13) Bacto Laboratories 212322) at 37 °C overnight.

Data set [13] has as its system Candida albicans ATCC 90028. Kind of data set: Antifungal MIC (CO-ADD screening). In kind it is cell-based. As to the method:
as §10, §11, §6, §12, §13

For data set [14], the system named is Klebsiella pneumoniae ATCC 700603 (ESBL SHV‐18). On the procedure:
as §2, §3, §4, §5, §6, §7, §8, §9

In another data set the test system is human red blood cells. The experiment in a line: Haemolysis assay. It is filed as cell-based. Conditions: for Haemolysis HC10: concentration inducing 10 % haemolysis; for Haemolysis HC50: concentration inducing 50 % haemolysis. Put shortly: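 Human red blood cells were exposed to compounds at 0.8–100 µM for 1 h at 37 °C without shaking. HC10 and HC50 were derived from dose-response fits, with melittin serving as the positive haemolytic control.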

Data set [15] concerns Staphylococcus aureus ATCC 43300 (MRSA). The experiment in a line: microbe, parasite or virus in culture. In kind it is cell-based. The note with it: for MIC Sa: CO‐ADD screening; for MIC: n=2; for MIC values as low as (panel of S. aureus strains): lowest MIC within the S. aureus panel. Put shortly:
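Mid-log cultures in cation-adjusted Mueller Hinton broth at 5 × 10^5 CFU/mL exposed to 2-fold compound dilutions (20–0.156 µM or 200–0.006 µM; ≤0.5% or 1% DMSO), 37 °C for 18 h without shaking.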

Regarding `C1=C\CC/C=C\CC/1.[Cl-].[Cl-].[Pt+2]` [Pt1, Pt(COD)Cl2], the MIC in the presence of human serum with S. aureus NRS 17 GISA is above 200 µM. Moreover, the MIC is 25–50^[a] μg/mL in data set [1] (Table 2 panel); 25^[a] μg/mL in [2] (Table 2 panel); 6.25^[b] μg/mL in data set [3] (Table 2 panel); 0.781^[a] μg/mL in [4] (Table 2 panel); 50–100^[a] μg/mL in data set [5] (Table 2 panel); 3.125^[a] μg/mL in data set [6] (Table 2 panel). Besides, the MIC in [7] (Table 2 panel) was 25^[a] μg/mL; in data set [8] (Table 2 panel) it was 12.5^[b] μg/mL; in data set [15] (Table 2 panel), 0.39^[b] μg/mL. Also, the “MIC Ab” value in [9] is above 20 µM. The “MIC Pa” value in data set [10] is above 20 µM. Also, the “MIC Ec” value in data set [11] was above 20 µM. For the same molecule, in data set [12], the “MIC Cn” value was 1.25 to 5 µM. The “MIC Ca” value in data set [13] lay within 10 to 20 µM. Besides, the “MIC Kp” value in data set [14] is above 20 µM. In the data set on human red blood cells, the “Haemolysis HC10” value was above 100 µM. Besides, the “Haemolysis HC50” value with human red blood cells is above 100 µM. In addition, in data set [15], the “MIC Sa” value lay in the range of 0.625 to 2.5 µM. Also, the “MIC values as low as (panel of S. aureus strains)” value in data set [15] was 0.39 µM.

In the case of `C1=CCC/C=C\CC1.[I][Pt][I]` [Pt2, Pt(COD)I2], in the data set with S. aureus NRS 17 GISA, the MIC in the presence of human serum is above 200 µM. The MIC in [1] (Table 2 panel) is 25^[a] μg/mL; in [2] (Table 2 panel) it was 12.5–25^[a] μg/mL; in [3] (Table 2 panel), 3.125–6.25^[b] μg/mL; in [4] (Table 2 panel), 1.56^[a] μg/mL; in data set [5] (Table 2 panel), 25–50^[a] μg/mL; in data set [6] (Table 2 panel) it was 6.25^[a] μg/mL. For the same molecule, the results for the MIC in data set [7] (Table 2 panel), in data set [8] (Table 2 panel) and in data set [15] (Table 2 panel) were 25^[a] μg/mL, 12.5–25^[b] μg/mL and 0.39–0.78^[b] μg/mL, respectively. For the same molecule, the “MIC Ab” value in [9] was above 20 µM. Moreover, the “MIC Pa” value in [10] is above 20 µM. The “MIC Ec” value in data set [11] is above 20 µM. The “MIC Cn” value in data set [12] was found to be 2.5 µM. For the same molecule, the “MIC Ca” value in data set [13] is 10 µM. The “MIC Kp” value in data set [14] was above 20 µM. The “Haemolysis HC10” value with human red blood cells is above 100 µM. For the same molecule, the “Haemolysis HC50” value in the data set with human red blood cells was above 100 µM. For the same molecule, the “MIC Sa” value in [15] is 1.25 µM. For the same molecule, the “MIC values as low as (panel of S. aureus strains)” value in data set [15] came out at 0.39 µM.

`CCC1=CCCC=CCC1.[CH3][Pt][Cl]` [Pt7]: the MIC in the presence of human serum in the data set on S. aureus NRS 17 GISA is above 200 µM. Besides, the MIC in data set [1] (Table S1 panel) is above 200 µM; in [2] (Table S1 panel) it was above 200 µM; in data set [3] (Table S1 panel) it was above 200 µM; in data set [4] (Table S1 panel), 200 µM; in data set [5] (Table S1 panel) it was above 200 µM; in [6] (Table S1 panel) it was above 200 µM. Moreover, the MIC in data set [7] (Table S1 panel) is above 200 µM; in data set [8] (Table S1 panel) it was 200 µM; in data set [15] (Table S1 panel), 200 µM. Moreover, the “MIC Ab” value in data set [9] was above 20 µM. In data set [10], the “MIC Pa” value is above 20 µM. Also, the “MIC Ec” value in data set [11] was above 20 µM. The “MIC Cn” value in data set [12] came to 20 µM. For the same molecule, in data set [13], the “MIC Ca” value was found to be 10 µM. Also, the “MIC Kp” value in data set [14] was above 20 µM. Further, in the data set with human red blood cells, the “Haemolysis HC10” value worked out at 10.27 µM. Further, the “Haemolysis HC50” value with human red blood cells is 52.12 µM. Besides, the “MIC Sa” value in data set [15] is above 20 µM.
